Assay [1] addresses Ribosomal protein S6 kinase beta-1 (Homo sapiens, UniProt P23443). As to the kind of experiment: Inhibition of S6K1.
For assay [2], the target named is Serine/threonine-protein kinase 26 (Homo sapiens) (UniProt Q9P289). As to the kind of experiment: Inhibition of MST4 at 1 uM in presence of 100 uM ATP by Select Screen kinase assay relative to untreated control.
Assay [3] concerns RAC-alpha serine/threonine-protein kinase (Homo sapiens), P31749 [M227G,R25C]. As to the kind of experiment: Induction of myristoylated AKT1 M227G and R25C mutant Ser473 hyperphosphorylation expressed in HEK293T cells at 2.5 uM after 30 mins by immunoblotting. It counts as cell-based. The following applies: HEK-293T.
Chain of RAC-alpha serine/threonine-protein kinase (Homo sapiens), P31749 [M227G,R25C] (P31749 whole entry R25C/M227G): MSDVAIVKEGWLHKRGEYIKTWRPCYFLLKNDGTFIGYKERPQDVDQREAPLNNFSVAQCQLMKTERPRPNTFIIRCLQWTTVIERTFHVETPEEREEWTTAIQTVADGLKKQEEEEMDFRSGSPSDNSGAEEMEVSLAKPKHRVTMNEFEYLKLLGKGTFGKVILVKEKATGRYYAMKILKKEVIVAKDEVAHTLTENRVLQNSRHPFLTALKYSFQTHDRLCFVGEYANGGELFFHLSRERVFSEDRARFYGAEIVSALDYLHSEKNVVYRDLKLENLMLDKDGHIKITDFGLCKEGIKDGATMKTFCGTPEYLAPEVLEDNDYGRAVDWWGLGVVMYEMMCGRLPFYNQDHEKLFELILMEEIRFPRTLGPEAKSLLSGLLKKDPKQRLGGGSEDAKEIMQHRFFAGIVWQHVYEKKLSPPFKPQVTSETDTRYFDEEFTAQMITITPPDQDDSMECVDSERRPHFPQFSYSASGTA
The test system of the next assay is MCF7. The experiment in a line: Induction of myristoylated AKT2 M225G mutant Thr308 hyperphosphorylation expressed in MCF7 cells at 2.5 uM after 30 mins by immunoblotting. Format: cell-based.
Assay [4] has as its system HEK-293T. The experiment in a line: Induction of myristoylated AKT3 M229G mutant Ser473 hyperphosphorylation expressed in HEK293T cells at 2.5 uM after 30 mins pretreated with mTOR kinase inhibitor PP242 for 10 mins before compound addition by immunoblotting. It counts as cell-based. Background: In western blotting, separated proteins are transferred to a membrane and probed.

In assay [5] the test system is HEK-293T. As to the kind of experiment: Induction of myristoylated AKT3 M229G mutant Thr308 hyperphosphorylation expressed in HEK293T cells at 2.5 uM after 30 mins by immunoblotting. Format: cell-based.
Assay [6] relates to HEK-293T. The experiment in a line: Induction of myristoylated AKT3 M229G mutant Thr308 hyperphosphorylation expressed in HEK293T cells at 2.5 uM after 30 mins pretreated with PDK1 inhibitor BX-795 for 10 mins before compound addition by immunoblotting. It counts as cell-based.
Assay [7] relates to HEK-293T. As to the kind of experiment: Induction myristoylated AKT2 M225G mutant Thr308 hyperphosphorylation expressed in HEK293T cells at 2.5 uM after 30 mins pretreated with mTOR kinase inhibitor PP242 for 10 mins before compound addition by immunoblotting. Format: cell-based.
The subject of assay [8] is RAC-alpha serine/threonine-protein kinase (Homo sapiens), P31749 [M227G,D292A]. As to the kind of experiment: Induction of myristoylated AKT1 M227G and kinase dead D292A mutant Ser473 hyperphosphorylation expressed in MiaPaCa2 cells at 2.5 uM after 30 mins by immunoblotting. It counts as cell-based.
Assay [9] has as its system HEK-293T. The experiment in a line: Induction of nonmyristoylated AKT2 M225G and kinase dead D289A mutant Thr308 hyperphosphorylation expressed in HEK293T cells at 2.5 uM after 30 mins by immunoblotting. Format: cell-based.
Assay [10] relates to RAC-alpha serine/threonine-protein kinase (Homo sapiens), P31749 [M227G]. The experiment in a line: Induction of myristoylated AKT1 M227G mutant Ser473 hyperphosphorylation expressed in HEK293 cells after 30 mins by immunoblotting. The following applies: HEK-293.
Chain of RAC-alpha serine/threonine-protein kinase (Homo sapiens), P31749 [M227G] (P31749 whole entry M227G): as the sequence (P31749 whole entry R25C/M227G) above, with C25R counted along it
Assay [11] relates to HEK-293T. The experiment in a line: Induction of myristoylated AKT3 M229G mutant Ser473 hyperphosphorylation expressed in HEK293T cells at 2.5 uM after 30 mins by immunoblotting. Format: cell-based.
Assay [12] concerns RAC-alpha serine/threonine-protein kinase (Homo sapiens), P31749 [M227G]. The experiment in a line: Induction of myristoylated AKT1 M227G mutant Ser473 hyperphosphorylation expressed in HEK293T cells at 2.5 uM after 30 mins pretreated with pan-PI3K inhibitor PIK90 for 10 mins before compound addition by immunoblotting. It counts as cell-based. Conditions: HEK-293T.
For assay [13], the system named is HEK-293T. As to the kind of experiment: Induction myristoylated AKT2 M225G mutant Ser473 hyperphosphorylation expressed in HEK293T cells at 2.5 uM after 30 mins pretreated with mTOR kinase inhibitor PP242 for 10 mins before compound addition by immunoblotting. It counts as cell-based.
Assay [14] has as its system RAC-alpha serine/threonine-protein kinase (Homo sapiens), P31749 [M227G]. As to the kind of experiment: Inhibition of myristoylated AKT1 M227G mutant expressed in HEK293T cells assessed as reduction of GSK3-beta Ser9 phosphorylation after 30 mins by immunoblotting. Format: cell-based. Conditions: HEK-293T.
Assay [15] has the same test system. As to the kind of experiment: Induction of myristoylated AKT1 M227G mutant Ser473 hyperphosphorylation expressed in HEK293T cells at 2.5 uM after 30 mins pretreated with PDK1 inhibitor BX-795 for 10 mins before compound addition by immunoblotting. Conditions: HEK-293T. It counts as cell-based.
In assay [16] the test system is RAC-alpha serine/threonine-protein kinase (Homo sapiens), P31749 [M227G,D292A]. As to the kind of experiment: Induction of myristoylated AKT1 M227G and kinase dead D292A mutant Thr308 hyperphosphorylation expressed in MCF7 cells at 2.5 uM after 30 mins by immunoblotting. Format: cell-based.
Chain of RAC-alpha serine/threonine-protein kinase (Homo sapiens), P31749 [M227G,D292A] (P31749 whole entry M227G/D292A): as the sequence (P31749 whole entry R25C/M227G) above, with C25R, D292A counted along it
In assay [17] the test system is RAC-alpha serine/threonine-protein kinase (Homo sapiens), P31749 [M227G]. The experiment in a line: Induction of myristoylated AKT1 M227G Thr308 hyperphosphorylation expressed in PC3 cells at 2.5 uM after 30 mins by immunoblotting. The following applies: PC-3. It counts as cell-based.
Assay [18] has the same test system. The experiment in a line: Induction of AKT1 M227G Ser473 hyperphosphorylation expressed in HEK293 cells at 2.5 uM after 30 mins pretreated with allosteric AKT inhibitor Akti-1,2 10 mins before compound addition by immunoblotting.
Assay [19] has the same test system. As to the kind of experiment: Induction of membrane localized myristoylated AKT1 M227G mutant Ser473 hyperphosphorylation expressed in HEK293T cells at 2.5 uM after 30 mins by immunoblotting. Format: cell-based. Conditions: HEK-293T.
Assay [20] has the same test system. As to the kind of experiment: Induction of myristoylated AKT1 M227G Ser473 hyperphosphorylation expressed in PC3 cells at 2.5 uM after 30 mins by immunoblotting. Format: cell-based. The following applies: PC-3.
The test system of assay [21] is RAC-alpha serine/threonine-protein kinase (Homo sapiens), P31749 [M227G,D292A]. As to the kind of experiment: Induction of myristoylated AKT1 M227G and kinase dead D292A mutant Thr308 hyperphosphorylation expressed in MiaPaCa2 cells at 2.5 uM after 30 mins by immunoblotting. Format: cell-based.

The source of these data is ChEMBL document CHEMBL1250448, “Inhibitor hijacking of Akt activation” (Nat Chem Biol, 2009).

SMILES strings stand for the structures. The source made the active and inactive calls. No cut-off for these calls is given here.

Chain of Ribosomal protein S6 kinase beta-1 (P23443 whole entry): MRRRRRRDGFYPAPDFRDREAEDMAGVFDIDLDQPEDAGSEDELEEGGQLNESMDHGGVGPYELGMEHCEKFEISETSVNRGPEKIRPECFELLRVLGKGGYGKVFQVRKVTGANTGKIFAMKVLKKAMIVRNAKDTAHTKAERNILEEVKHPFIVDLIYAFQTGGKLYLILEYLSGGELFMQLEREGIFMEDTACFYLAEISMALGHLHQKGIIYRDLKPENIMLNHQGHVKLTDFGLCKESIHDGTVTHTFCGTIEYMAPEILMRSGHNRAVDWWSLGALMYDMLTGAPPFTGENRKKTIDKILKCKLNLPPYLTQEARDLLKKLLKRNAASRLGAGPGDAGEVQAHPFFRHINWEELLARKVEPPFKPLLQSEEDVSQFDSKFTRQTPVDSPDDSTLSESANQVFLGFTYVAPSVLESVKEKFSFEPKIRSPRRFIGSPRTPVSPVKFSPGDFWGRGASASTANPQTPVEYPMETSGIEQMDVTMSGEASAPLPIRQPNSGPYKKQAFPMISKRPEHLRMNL
Chain of Serine/threonine-protein kinase 26 (Homo sapiens) (Q9P289 2-416 limits assumed): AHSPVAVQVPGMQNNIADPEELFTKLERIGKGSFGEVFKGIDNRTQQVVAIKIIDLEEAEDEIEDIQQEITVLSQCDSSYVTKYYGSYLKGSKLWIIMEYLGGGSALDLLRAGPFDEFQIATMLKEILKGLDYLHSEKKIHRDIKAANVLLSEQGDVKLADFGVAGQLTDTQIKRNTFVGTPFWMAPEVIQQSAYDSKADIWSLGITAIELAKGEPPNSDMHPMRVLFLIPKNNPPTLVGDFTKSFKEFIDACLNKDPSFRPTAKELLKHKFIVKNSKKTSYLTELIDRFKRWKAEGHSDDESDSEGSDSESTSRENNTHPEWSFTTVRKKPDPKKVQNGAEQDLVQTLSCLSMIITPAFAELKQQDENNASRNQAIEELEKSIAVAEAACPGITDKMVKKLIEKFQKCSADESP

A word on the IC50: it is the concentration that gives 50% inhibition. As a reminder, the inhibition is the share of the control response that was lost under treatment. For the compound `COc1ccccc1N1CCN(c2ncnc3[nH]nc(Br)c23)CC1`, 9.1 nM corresponded to half-maximal inhibition in assay [1] (IC50). Moreover, the inhibition in assay [2] was 11%.
On to `CCCc1cc(-c2cncc(OC[C@@H](N)Cc3c[nH]c4ccccc34)c2)cc2c(C)n[nH]c12`, for which the result (in assay [3]; in the assay on HEK-293T [4]; in the assay on HEK-293T [6]; in [12]; with HEK-293T [13]; in [15]) was inactive. The outcome in assay [18] was inactive. For the same compound, the result (with MCF7; with HEK-293T [5]; in the assay with HEK-293T [7]; in [8]; in the assay with HEK-293T [9]; with HEK-293T [11]) was Active. Moreover, the result in [16], in assay [17], in assay [19], in [20] and in assay [21] was Active. In assay [10], the Activity result was “Dose-dependent effect”. Further, in assay [14], the inhibition entry is “Active”.
